From patent USRE30633E, “3-Lower alkylcarbamylsulfonamido-4-phenylaminopyridines, n-oxides, derivatives thereof and pharmaceutical compositions containing same” (A. Christiaens Societe Anonyme, priority 1974, dated 1981)

Experiments:
rats = test: Pharmacological test for diuretic properties (urine volume); format: in vivo; conditions: 50 mg/kg gastric gavage, 25 ml/kg saline s.c., urine collected 4 hours, ml/kg of body weight
Protocol: 2. Pharmacological tests for diuretic properties Lots of 3 rats weighting 250-300 g have been constituted at random, each of them being submitted to the same treatment. The compound to be tested was administered by .[.gastric gavage at a dose of 50 ml/kg as a solution or a.]. .Iadd.gastric gavage at a dose of 50 mg/kg as a solution or a .[…].suspension in water containing 0.45% of methylcellulose (which is an inert mucilaginous substance). Control animals received only distilled water as a placebo. At the same time, all the animals received 25 ml/kg of physiological saline by subcutaneous injection. The rats were then placed in metabolic cages, each cage containing 3 animals receiving the same treatment. The urines have been collected during 4 hours. […] The diuresis is expressed in ml/kg of body weight.

paw of rats = test: Pharmacological test for anti-inflammatory properties (carrageenan rat paw swelling); format: in vivo; conditions: oral 1 hour before carrageenan (0.05 ml of 1%), swelling 4 hours after injection by plethysmography, dose not given
Protocol: 1. Pharmacological test for anti-inflammatory properties.
The compounds to be tested are given as freshly prepared solutions or suspensions by oral route 1 hour before injecting the paw of rats with carrageenan which is a known inflammatory agent.
The inflammatory agent (carrageenan) either in solution or suspension is then injected into the plantar tissue of the right hind paw of each rat, the left paw remaining untreated and serving as control. Each animal receives, for example, 0.05 ml of an aqueous solution containing 1% by weight of carrageenan and 0.9% of sodium chloride.
4 hours after the injection of the inflammatory agent, the importance of swelling is determined by plethysmography and is expressed as a percent of the volume of the control paw.
The anti-inflammatory effect expressed as a percentage of inhibition is obtained by comparison between rats treated with the anti-inflammatory compound and a control group of rats.

Molecule | Diuresis (rats) [mL/kg] | % inhibition of acute oedema (paw of rats) [%]
O=C(NC1CCCCC1)NS(=O)(=O)c1cnccc1Nc1cccc(C(F)(F)F)c1 [JDL 364, 3-cyclohexylcarbamylsulfonamido-4-(3'-trifluoromethyl)-phenylaminopyridine] | 37.7 | 58.4
CNC(=O)NS(=O)(=O)c1cnccc1Nc1cccc(C)c1 [JDL 494, 3-methylcarbamylsulfonamido-4-(3'-methyl)-phenylaminopyridine] | 75.9 | 85.6
CCNC(=O)NS(=O)(=O)c1cnccc1NCc1ccco1 [JDL 471, 3-ethylcarbamylsulfonamido-4-methylfurylaminopyridine] | 37.7 | 70.4
CCCNC(=O)NS(=O)(=O)c1cnccc1Nc1cccc(C(F)(F)F)c1 [JDL 355, 3-propylcarbamylsulfonamido-4-(3'-trifluoromethyl)phenylaminopyridine] | 57.0 | 48.8
CNC(=O)NS(=O)(=O)c1cnccc1Nc1cccc(C(F)(F)F)c1 [JDL 378, 3-methylcarbamylsulfonamido-4-(3'-trifluoromethyl)-phenylaminopyridine] | 84.0 | 74.4
C=CCNC(=S)NS(=O)(=O)c1cnccc1Nc1cccc(Cl)c1 [JDL 480, 3-allyl-thiocarbamyl-sulfonamido-4-(3'-chloro)-phenylaminopyridine] | 26.4 | 65.6
CC(C)(C)NC(=O)NS(=O)(=O)c1cnccc1Nc1cccc(C(F)(F)F)c1 [JDL 367, 3-tertbutylcarbamylsulfonamido-4-(3'-trifluoromethyl)-phenylaminopyridine] | 11.1 | 80.0
CCNC(=O)NS(=O)(=O)c1cnccc1Nc1cccc(OC)c1 [JDL 469, 3-ethylcarbamylsulfonamido-4-(3'-methoxy)-phenylaminopyridine] | 46.9 | 60.8
CCNC(=O)NS(=O)(=O)c1cnccc1Nc1cc(Cl)cc(Cl)c1 [JDL 473, 3-ethylcarbamylsulfonamido-4-(3',5'-dichloro)-phenylaminopyridine] | 24.0 | 41.6
CNC(=O)NS(=O)(=O)c1cnccc1NCc1ccco1 [JDL 492, 3-methylcarbamylsulfonamido-4-methyl-furylaminopyridine] | 14.9 | 88.8
3-isopropylcarbamylsulfonamido-4-isopropylaminopyridine [JDL 363] | 40.1 | 63.2
CC(C)NC(=O)NS(=O)(=O)c1cnccc1NCc1ccco1 [JDL 472, 3-isopropylcarbamylsulfonamido-4-methylfurylaminopyridine] | 69.6 | 54.4
Cc1cccc(Nc2ccncc2S(=O)(=O)NC(=O)NC(C)C)c1 [JDL 464, 3-isopropylcarbamylsulfonamido-4-(3'-methyl)-phenylaminopyridine] | 81.6 | 76.8
CC(C)NC(=O)NS(=O)(=O)c1cnccc1Nc1cccc(Br)c1 [JDL 468, 3-isopropylcarbamylsulfonamido-4-(3'-bromo)-phenylaminopyridine] | 77.2 | 72.0
CCCCNC(=O)NS(=O)(=O)c1cnccc1Nc1cccc(Cl)c1 [JDL 344, 3-butylcarbamylsulfonamido-4-(3'-chloro)-phenylaminopyridine] | 66.9 | 82.4
CCNC(=S)NS(=O)(=O)c1cnccc1Nc1cccc(Cl)c1 [JDL 478, 3-ethylthiocarbamylsulfonamido-4-(3'-chloro)-phenylaminopyridine] | 29.7 | 29.6
CC(C)(C)NC(=O)NS(=O)(=O)c1cnccc1Nc1ccccc1Cl [JDL 427, 3-tertiobutylcarbamylsulfonamido-4-(2'-chloro)-phenylaminopyridine] | 11.4 | 53.6
CCCCNC(=O)NS(=O)(=O)c1cnccc1Nc1ccc(Cl)cc1 [JDL 424, 3-butylcarbamylsulfonamido-4-(4'-chloro)-phenylaminopyridine] | 21.0 | 50.4
CCN(CC)c1ccncc1S(N)(=O)=O [JDL 484, 3-sulfonamido-4-diethylaminopyridine] | 9.0 | 13.6

Molecule | Diuresis (rats) [mL/kg] | % inhibition of acute oedema (paw of rats) [%]
CC(C)NC(=O)NS(=O)(=O)c1cnccc1Nc1ccccc1Cl [JDL 421, 3-isopropylcarbamylsulfonamido-4-(2'-chloro)-phenylaminopyridine] | 72.0 | 88.8
CCNC(=O)NS(=O)(=O)c1cnccc1Nc1cccc(C)c1 [JDL 463, 3-ethylcarbamylsulfonamido-4-(3'-methyl)-phenylaminopyridine] | 76.1 | 73.6
CCCNC(=O)NS(=O)(=O)c1cnccc1Nc1ccccc1Cl [JDL 404, 3-propylcarbamylsulfonamido-4-(2'-chloro)-phenylaminopyridine] | 43.1 | 76.8
NS(=O)(=O)c1cnccc1Oc1cccc(Cl)c1 [JDL 360, 3-sulfonamido-4-(3'-chloro)-phenoxypyridine] | 5.2 | 33.6
O=C(Nc1ccc(Cl)cc1)NS(=O)(=O)c1cnccc1Nc1cccc(C(F)(F)F)c1 [JDL 357, 3-parachlorophenylcarbamylsulfonamido-4-(3'-trifluoromethyl)-phenylaminopyridine] | 11.2 | 52.0
CCCNC(=O)NS(=O)(=O)c1cnccc1N(C)c1ccccc1 [JDL 383, 3-pripylcarbamylsulfonamido-4-N-methyl-anilinopyridine] | 57.8 | 55.2
CCCCNC(=O)NS(=O)(=O)c1cnccc1NC(C)C [JDL 491, 3-butylcarbamylsulfonamido-4-isopropylaminopyridine] | 25.1 | 88.0
CC(C)NC(=O)NS(=O)(=O)c1cnccc1Nc1cccc(Cl)c1 [JDL 413, 3-isopropylcarbamylsulfonamido-4-(3'-chloro)-phenylaminopyridine] | 92.5 | 76.8
CNC(=S)NS(=O)(=O)c1cnccc1Nc1cccc(Cl)c1 [JDL 477, 3-methylthiocarbamylsulfonamido-4-(3'-chloro)-phenylaminopyridine] | 43.6 | 61.6
CCNC(=O)NS(=O)(=O)c1cnccc1Nc1cccc(Cl)c1 [JDL 387] | 80.9 | 76.8
CC(C)NC(=O)NS(=O)(=O)c1cnccc1Nc1ccc(Cl)c(Cl)c1 [JDL 476, 3-isopropylcarbamylsulfonamido-4-(3',4'-dichloro)-phenylaminopyridine] | 42.1 | 92.0
CNC(=O)NS(=O)(=O)c1cnccc1Nc1cccc(Cl)c1 [JDL 379, 3-methylcarbamylsulfonamido-4-(3'-chloro)-phenylaminopyridine] | 76.5 | 63.2
O=C(Nc1ccccc1)NS(=O)(=O)c1cnccc1Nc1cccc(Cl)c1 [JDL 390, 3-phenylcarbamylsulfonamido-4-(3'-chloro)-phenylaminopyridine] | 16.9 | 47.2
CCCNC(=O)NS(=O)(=O)c1cnccc1Sc1cccc(Cl)c1 [JDL 384, 3-propylcarbamylsulfonamido-4-(3'-chloro)-thiophenoxypyridine] | 12.8 | 66.4
CNC(=O)NS(=O)(=O)c1cnccc1Nc1cccc(Br)c1 [JDL 496, 3-methylcarbamylsulfonamido-4-(3'-bromo)-phenylaminopyridine] | 72.1 | 70.4
CCCNC(=O)NS(=O)(=O)c1cnccc1Oc1cccc(Cl)c1 [JDL 365, 3-propylcarbamylsulfonamido-4-(3'-chloro)-phenoxypyridine] | 8.7 | 43.2
Cc1cncc(S(=O)(=O)NC(=O)NC(C)C)c1Nc1cccc(Cl)c1 [JDL 503, 3-isopropylcarbamylsulfonamido-4-(3'-chloro)-phenylamino-5-methylpyridine] | 48.9 | 71.2
CC(C)NC(=O)NS(=O)(=O)c1cnccc1Nc1cc(Cl)cc(Cl)c1 [JDL 474, 3-isopropylcarbamylsulfonamido-4-(3',5'-dichloro)-phenylaminopyridine] | 33.3 | 
CNC(=O)NS(=O)(=O)c1cnccc1Nc1cccnc1 [JDL 506, 3-methylcarbamylsulfonamido-4-(3'-pyridylamino)-pyridine] | 13.5 | 
